Experimental findings from patent US12453731B2, “Aniline-based WDR5 protein-protein interaction inhibitor, and preparation method and use thereof” (CHINA PHARMACEUTICAL UNIVERSITY, priority 2019, dated 2025) are described below.

In the first assay the target is MLL1-WDR5 PPI (Homo sapiens (Human), UniProt P61964). The experiment in a line: fluorescent probe assay of MLL1-WDR5 protein-protein interaction inhibition. Format: binding. To be noted: fluorescent probe based on MLL1 peptide, incubation 0.5 hrs, read-out: MLL1-WDR5 PPI inhibiting activity IC50. How it is done: In the present disclosure, a fluorescent molecular probe was constructed based on a MLL1 peptide fragment binding to WDR5, for use as a method for study on an aniline compound interfering with WDR5 protein-protein interaction, to determine an inhibition rate of the aniline compound at various concentrations, and then compute the IC50 value. Specific experimental steps: 20 μL of WDR5 protein, 20 μL of a fluorescent probe, and 20 μL of a compound of different concentration gradients were added to a 384-well plate respectively. After incubation for 0.5 hrs, the fluorescence was read on a multifunctional microplate reader at an excitation wavelength of 485 nm and an emission wavelength of 535 nm, to compute the mP value. The inhibition rate was computed as per the formula below, and then the IC50 value was computed using GraphPad software.
The term IC50 denotes the concentration needed to halve the response being measured. Regarding `CN1CCN(c2ccc([N+](=O)[O-])cc2Nc2cc(Cl)ncn2)CC1` [Example 2, 6-chloro-N-(2-(4-methylpiperazin-1-yl)-5-nitrophenyl)pyrimidine-4-amine], the IC50 amounted to 10300 nM.

In the case of `CN1CCN(c2ccc([N+](=O)[O-])cc2Nc2ncnc(Cl)c2N)CC1` [Example 7, 6-chloro-N^4-(2-(4-methylpiperazin-1-yl)-5-nitrophenyl)pyrimidine-4,5-diamine], the 50% inhibitory concentration (IC50) is 2660 nM.

As for `CN1CCN(c2ccc(-c3ccc(NC(=O)c4ccccc4)cc3)cc2Nc2ncnc(Cl)c2N)CC1` [Example 37, N-(3″-((5-amino-6-chloropyrimidin-4-yl)amino)-4″-(4-methylpiperazin-1-yl)-[1,1′-biphenyl]-4-yl)benzenecarboxamide], the IC50 came to 5550 nM.

With `COc1ccc(-c2ccc(N3CCN(C)CC3)c(Nc3ncnc(Cl)c3N)c2)cc1` [Example 42, 6-chloro-N-(4′-methoxyl-4-(4-methylpiperazin-1-yl)-[1,1′-biphenyl]-3-yl)pyrimidine-4,5-diamine], the IC50 was 1560 nM.

In the case of `CN1CCN(c2ccc(-c3ccoc3)cc2Nc2ncnc(Cl)c2N)CC1` [Example 43, 6-chloro-N^4-(5-(furan-3-yl)-2-(4-methylpiperazin-1-yl)phenyl)pyrimidine-4,5-diamine], the IC50 turned out to be 11400 nM.

In the case of `CN1CCN(c2ccc(-c3cncnc3)cc2Nc2ncnc(Cl)c2N)CC1` [Example 44, 6-chloro-N^4-(2-(4-methylpiperazin-1-yl)-5-(pyrimidine-5-yl)phenyl)pyrimidine-4,5-diamine], the IC50 amounted to 5710 nM.

Consider `CN1CCN(c2ccc(-n3cc(C(=O)NCCCN4CCOCC4)nn3)cc2Nc2ncnc(Cl)c2N)CC1` [Example 48, 1-(3-((5-amino-6-chloropyrimidin-4-yl)amino)-4-(4-methylpiperazin-1-yl)phenyl)-N-(3-morpholinopropyl)-1H-1,2,3-triazole-4-carboxamide], for which the IC50 is 1090 nM.

Turning to `CN1CCN(C(=O)c2cn(-c3ccc(N4CCN(C)CC4)c(Nc4ncnc(Cl)c4N)c3)nn2)CC1` [Example 49, (1-(3-((5-amino-6-chloropyrimidin-4-yl)amino)-4-(4-methylpiperazin-1-yl)phenyl)-1H-1,2,3-triazole-4-yl)(4-methylpiperazin-1-yl)methanone], the IC50 turned out to be 1250 nM.

For the compound `CN(C)CCNC(=O)c1cn(-c2ccc(N3CCN(C)CC3)c(Nc3ncnc(Cl)c3N)c2)nn1` [Example 52, 1-(3-((5-amino-6-chloropyrimidin-4-yl)amino)-4-(4-methylpiperazin-1-yl)phenyl)-N-(2-(dimethylamino)ethyl)-1H-1,2,3-triazole-4-carboxamide], the IC50 was 1560 nM.

Turning to `CN1CCN(c2ccc(-n3cc(C(=O)NCCN4CCCC4)nn3)cc2Nc2ncnc(Cl)c2N)CC1` [Example 53, 1-(3-((5-amino-6-chloropyrimidin-4-yl)amino)-4-(4-methylpiperazin-1-yl)phenyl)-N-(2-(pyrrolidin-1-yl)ethyl)-1H-1,2,3-triazole-4-carboxamide], the IC50 was 1610 nM.

Take `Cc1c(-c2ccc(C(=O)N(C)C)cc2)ccc(N2CCN(C)CC2)c1Nc1ncnc(Cl)c1N` [Example 65, 3″-((5-amino-6-chloropyrimidin-4-yl)amino)-N,N,2′-trimethyl-4″-(4-methylpiperazin-1-yl)-[1,1′-biphenyl]-4-carboxamide]: the IC50 turned out to be 671 nM.

On to `COC(=O)c1ccc(-c2cc(Nc3ncnc(Cl)c3N)c(N3CCN(C)CC3)cc2C)cc1` [Example 73, Methyl 5′-((5-amino-6-chloropyrimidin-4-yl)amino)-2′-methyl-4′-(4-methylpiperazin-1-yl)-[1,1′-biphenyl]-4-carboxylate], for which the IC50 was 316 nM.

In the next assay the test system is methylation level of H3K4. Kind of assay: inhibition of the methylation level of H3K4 (methyltransferase activity). Format: biochemical.
Details: not given
Turning to `CN1CCN(c2ccc(-c3ccc(NC(=O)c4ccccc4)cc3)cc2Nc2ncnc(Cl)c2N)CC1` [Example 37, N-(3″-((5-amino-6-chloropyrimidin-4-yl)amino)-4″-(4-methylpiperazin-1-yl)-[1,1′-biphenyl]-4-yl)benzenecarboxamide], the “Whether the methylation level of H3K4 was inhibited” value is given as “Yes”.

With `COC(=O)c1ccc(-c2cc(Nc3ncnc(Cl)c3N)c(N3CCN(C)CC3)cc2C)cc1` [Example 73, Methyl 5′-((5-amino-6-chloropyrimidin-4-yl)amino)-2′-methyl-4′-(4-methylpiperazin-1-yl)-[1,1′-biphenyl]-4-carboxylate], the “Whether the methylation level of H3K4 was inhibited” value is given as “Yes”.
